# Laboratory results reported in patent EP0745595A1, “3-(3-Aryloxyphenyl)-1-(substituted methyl)-s-triazine-2,4,6-oxo or thiotrione herbicidal agents” (American Cyanamid Company, priority 1995, dated 1996).
# Tests used:
# Format in all cases: in vivo
# ZEA MAYS L. = assay: Postemergence herbicidal evaluation, ZEAMX (Corn, Field)
# Outline: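 Corn seedlings were raised in jiffy flats for roughly two weeks, then sprayed postemergence with the test material dispersed in 50/50 acetone/water containing 0.5% TWEEN®20 surfactant, using a nozzle at 40 psi. Plants were kept on greenhouse benches under standard care and visually rated on a 0-9 scale four to five weeks after treatment.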
# CHENOPODIUM ALBUM, L. [1] = assay: Postemergence herbicidal evaluation, CHEAL (Lambsquarters, Common)
# Outline: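 Seedlings of common lambsquarters (Chenopodium album) were raised in jiffy flats for roughly two weeks, then sprayed postemergence through a nozzle at 40 psi with test compound dispersed in 50/50 acetone/water containing 0.5% TWEEN®20 surfactant. Plants were kept on greenhouse benches under standard care and rated visually on a 0-9 scale versus controls.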
# [2] = system: TRITICUM AESTIVUM, CV. APOLLO; assay: Postemergence herbicidal evaluation, TRZAWO (Wheat, Winter, CV. APOLLO)
# Outline: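 Wheat seedlings, raised in jiffy flats for roughly two weeks, were sprayed postemergence with test compound dispersed in a 50/50 acetone/water mixture containing 0.5% TWEEN®20 surfactant, delivered through a nozzle at 40 psi. Plants were then kept on greenhouse benches under conventional care. Four to five weeks after treatment they were rated visually on a 0-9 scale against an untreated control, and ratings from repeated tests were averaged.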
# [3] = system: ECHINOCHLOA CRUS-GALLI, (L) BEAU; assay: Postemergence herbicidal evaluation, ECHCG (Barnyardgrass); parameters: key to ECHCG rating / Herbicidal effect rating, ECHCG / ECHCG: 0-9 visual rating scale vs untreated control
# Outline: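 Greenhouse postemergence test. Seedlings (~2 wk) sprayed at 40 psi; dose ~0.125–0.500 kg/ha in acetone/water (1:1), 0.5% TWEEN 20. Scored 0–9 at 4–5 wk.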
# [4] = system: AMBROSIA ARTEMISIIFOLIA, L.; assay: Postemergence herbicidal evaluation, AMBEL (Ragweed, Common)
# Outline: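 Common ragweed (Ambrosia artemisiifolia) seedlings were raised in jiffy flats for roughly two weeks, then sprayed postemergence through a nozzle at 40 psi with the test compound dispersed in 50/50 acetone/water carrying 0.5% TWEEN®20. The plants were kept on greenhouse benches under conventional care. Four to five weeks later, injury was rated visually on a 0-9 scale, and repeat tests were averaged.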
# CHENOPODIUM ALBUM, L. [5] = assay: Preemergence herbicidal evaluation, CHEAL (Lambsquarters, Common); conditions: for CHEAL herbicidal rating: rated four to five weeks after treatment
# Outline: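 Greenhouse preemergence test; treated soil cups received compound in aqueous acetone (about 0.125 to 0.50 kg/ha) right after sowing and were assessed visually 4-5 weeks later on a 0-9 scale compared with control plants.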
# IPOMOEA SPP. = assay: Postemergence herbicidal evaluation, IPOSS (Morningglory spp.)
# Outline: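 Seedlings of morningglory (Ipomoea spp.) were raised in jiffy flats for roughly two weeks. They were then sprayed postemergence through a nozzle at 40 psi with test compound dispersed in 50/50 acetone/water containing 0.5% TWEEN®20 surfactant. Plants were kept on greenhouse benches under standard care and visually rated 0-9 against controls four to five weeks after treatment.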
# [6] = system: ABUTILON THEOPHRASTI, MEDIC.; assay: Postemergence herbicidal evaluation, ABUTH (Velvetleaf)
# Outline: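 Velvetleaf (Abutilon theophrasti) seedlings were raised in jiffy flats for about two weeks and then sprayed postemergence. The test compound was dispersed in a 50/50 acetone/water mixture containing 0.5% TWEEN®20 and applied through a nozzle operating at 40 psi. Plants were kept on greenhouse benches and rated 0-9 four to five weeks after treatment.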
# CASSIA OBTUSIFOLIA, L. = assay: Postemergence herbicidal evaluation, CASOB (Sicklepod); parameters: key to CASOB rating / Herbicidal effect rating, CASOB / CASOB: 0-9 visual rating scale vs untreated control
# Outline: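 Two-week-old seedlings sprayed with compound in 50/50 acetone/water plus 0.5% TWEEN 20 at about 0.125–0.500 kg/ha via nozzle at 40 psi. Kept in greenhouse; rated visually 4–5 weeks after treatment on a 0–9 scale versus untreated control, averaging repeat tests.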
# GALIUM APARINE = assay: Postemergence herbicidal evaluation, GALAP (Galium); parameters: key to GALAP rating / Herbicidal effect rating, GALAP / GALAP: 0-9 visual rating scale vs untreated control
# Outline: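 Galium (GALAP) seedlings were raised in jiffy flats for about two weeks, then sprayed with test compounds dispersed in 50/50 acetone/water containing 0.5% TWEEN®20, delivered through a nozzle at 40 psi. Plants were kept on greenhouse benches and visually rated 0-9 against a control four to five weeks later; repeat tests were averaged.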
# [7] = system: ORYZA SATIVA, L. TEBONNET; assay: Rice tolerance to post-transplant applications under flooded paddy conditions, ORYSAT (Rice, Tebonnet); conditions: for Herbicidal effect rating, ORYSAT: post-transplant rice, 3-4 weeks after treatment; for ORYSAT: post-transplanted rice
# Outline: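 Post-transplant paddy test: compound applied 3 d after transplanting to flooded soil (1.5-3 cm water), ~0.063-0.5 kg/ha a.i., 50/50 aq/acetone. Silt loam, 2 × 10-d seedlings/pot. Greenhouse 3-4 wk, visual 0-9 score vs control.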
substance,measurement,setting,value
"Methyl 3-{2-[(2-chloro-α,α,α,-trifluoro-p-tolyl)oxy]phenyl}tetrahydro-5-methyl-2,4,6-trioxo-s-triazine-1(2H)-acetate [Compound 28]",ZEAMX,ZEA MAYS L.; Rate 0.063 kg/ha,1.5
same,ZEAMX,ZEA MAYS L.; Rate 0.125 kg/ha,2.5
same,ZEAMX rating,ZEA MAYS L.; Rate 0.125 kg/ha,2.5
same,ZEAMX,ZEA MAYS L.; Rate 0.250 kg/ha,4.0
same,ZEAMX rating,ZEA MAYS L.; Rate 0.250 kg/ha,4.0
same,ZEAMX,ZEA MAYS L.; Rate 0.500 kg/ha,4.5
same,ZEAMX rating,ZEA MAYS L.; Rate 0.500 kg/ha,4.5
same,CHEAL,"CHENOPODIUM ALBUM, L. [1]; Rate 0.063 kg/ha",6.0
same,CHEAL,"CHENOPODIUM ALBUM, L. [1]; Rate 0.125 kg/ha",6.0
same,CHEAL rating,"CHENOPODIUM ALBUM, L. [1]; Rate 0.125 kg/ha",6.0
same,CHEAL,"CHENOPODIUM ALBUM, L. [1]; Rate 0.250 kg/ha",8.0
same,CHEAL rating,"CHENOPODIUM ALBUM, L. [1]; Rate 0.250 kg/ha",8.0
same,CHEAL,"CHENOPODIUM ALBUM, L. [1]; Rate 0.500 kg/ha",9.0
same,CHEAL rating,"CHENOPODIUM ALBUM, L. [1]; Rate 0.500 kg/ha",9.0
same,TRZAWO,[2]; Rate 0.063 kg/ha,1.5
same,TRZAWO,[2]; Rate 0.125 kg/ha,2.0
same,TRZAWO rating,[2]; Rate 0.125 kg/ha,2.0
same,TRZAWO,[2]; Rate 0.250 kg/ha,2.0
same,TRZAWO rating,[2]; Rate 0.250 kg/ha,2.0
same,TRZAWO,[2]; Rate 0.500 kg/ha,2.0
same,TRZAWO rating,[2]; Rate 0.500 kg/ha,2.0
same,ECHCG,[3]; Rate 0.063 kg/ha,0.0
same,ECHCG,[3]; Rate 0.125 kg/ha,0.0
same,ECHCG rating,[3]; Rate 0.125 kg/ha,0.0
same,ECHCG,[3]; Rate 0.250 kg/ha,0.0
same,ECHCG rating,[3]; Rate 0.250 kg/ha,0.0
same,ECHCG,[3]; Rate 0.500 kg/ha,2.0
same,ECHCG rating,[3]; Rate 0.500 kg/ha,2.0
same,AMBEL,[4]; Rate 0.063 kg/ha,3.0
same,AMBEL,[4]; Rate 0.125 kg/ha,4.0
same,AMBEL rating,[4]; Rate 0.125 kg/ha,4.0
same,AMBEL,[4]; Rate 0.250 kg/ha,6.0
same,AMBEL rating,[4]; Rate 0.250 kg/ha,6.0
same,AMBEL,[4]; Rate 0.500 kg/ha,7.0
same,AMBEL rating,[4]; Rate 0.500 kg/ha,7.0
same,CHEAL,"CHENOPODIUM ALBUM, L. [5]; Rate 0.125 kg/ha",3.0
same,CHEAL herbicidal rating,"CHENOPODIUM ALBUM, L. [5]; Rate 0.125 kg/ha",3.0
same,CHEAL,"CHENOPODIUM ALBUM, L. [5]; Rate 0.250 kg/ha",6.0
same,CHEAL herbicidal rating,"CHENOPODIUM ALBUM, L. [5]; Rate 0.250 kg/ha",6.0
same,CHEAL,"CHENOPODIUM ALBUM, L. [5]; Rate 0.500 kg/ha",7.0
same,CHEAL herbicidal rating,"CHENOPODIUM ALBUM, L. [5]; Rate 0.500 kg/ha",7.0
same,CHEAL,"CHENOPODIUM ALBUM, L. [5]; Rate 1.000 kg/ha",9.0
same,IPOSS,IPOMOEA SPP.; Rate 0.063 kg/ha,6.0
same,IPOSS,IPOMOEA SPP.; Rate 0.125 kg/ha,6.0
same,IPOSS rating,IPOMOEA SPP.; Rate 0.125 kg/ha,6.0
same,IPOSS,IPOMOEA SPP.; Rate 0.250 kg/ha,8.0
same,IPOSS rating,IPOMOEA SPP.; Rate 0.250 kg/ha,8.0
same,IPOSS,IPOMOEA SPP.; Rate 0.500 kg/ha,9.0
same,IPOSS rating,IPOMOEA SPP.; Rate 0.500 kg/ha,9.0
same,ABUTH,[6]; Rate 0.063 kg/ha,4.0
same,ABUTH,[6]; Rate 0.125 kg/ha,6.0
same,ABUTH rating,[6]; Rate 0.125 kg/ha,6.0
same,ABUTH,[6]; Rate 0.250 kg/ha,7.0
same,ABUTH rating,[6]; Rate 0.250 kg/ha,7.0
same,ABUTH,[6]; Rate 0.500 kg/ha,9.0
same,ABUTH rating,[6]; Rate 0.500 kg/ha,9.0
same,CASOB,"CASSIA OBTUSIFOLIA, L.; Rate 0.063 kg/ha",3.0
same,CASOB,"CASSIA OBTUSIFOLIA, L.; Rate 0.125 kg/ha",5.0
same,CASOB rating,"CASSIA OBTUSIFOLIA, L.; Rate 0.125 kg/ha",5.0
same,CASOB,"CASSIA OBTUSIFOLIA, L.; Rate 0.250 kg/ha",6.0
same,CASOB rating,"CASSIA OBTUSIFOLIA, L.; Rate 0.250 kg/ha",6.0
same,CASOB,"CASSIA OBTUSIFOLIA, L.; Rate 0.500 kg/ha",6.5
same,CASOB rating,"CASSIA OBTUSIFOLIA, L.; Rate 0.500 kg/ha",6.5
same,GALAP,GALIUM APARINE; Rate 0.063 kg/ha,6.0
same,GALAP,GALIUM APARINE; Rate 0.125 kg/ha,4.0
same,GALAP rating,GALIUM APARINE; Rate 0.125 kg/ha,4.0
same,GALAP,GALIUM APARINE; Rate 0.250 kg/ha,5.0
same,GALAP rating,GALIUM APARINE; Rate 0.250 kg/ha,5.0
same,GALAP,GALIUM APARINE; Rate 0.500 kg/ha,4.5
same,GALAP rating,GALIUM APARINE; Rate 0.500 kg/ha,4.5
same,"Herbicidal effect rating, ORYSAT",[7]; 0.063 kg/ha,0.0
same,"Herbicidal effect rating, ORYSAT",[7]; 0.125 kg/ha,1.0
same,"Herbicidal effect rating, ORYSAT",[7]; 0.250 kg/ha,2.0
same,"Herbicidal effect rating, ORYSAT",[7]; 0.500 kg/ha,2.0
same,ORYSAT,[7]; Rate 0.250 kg/ha,2.0
same,ORYSAT,[7]; Rate 0.500 kg/ha,2.0
same,ORYSAT,[7]; Rate 1.000 kg/ha,3.0
